Here are results for 8 molecules from paper PMC10952593, “Synthetic cannabinoid receptor agonists are monoamine oxidase‐A selective inhibitors” (The Febs Journal, 2023).

What all share (assay type): biochemical
For test [1], the target named is T1, MAO-B (Homo sapiens, UniProt P27338).
T1 construct: gene MAOB; FAD enzyme; PDB 2V5Z was only the docking model
T1 sequence (P27338 2-520): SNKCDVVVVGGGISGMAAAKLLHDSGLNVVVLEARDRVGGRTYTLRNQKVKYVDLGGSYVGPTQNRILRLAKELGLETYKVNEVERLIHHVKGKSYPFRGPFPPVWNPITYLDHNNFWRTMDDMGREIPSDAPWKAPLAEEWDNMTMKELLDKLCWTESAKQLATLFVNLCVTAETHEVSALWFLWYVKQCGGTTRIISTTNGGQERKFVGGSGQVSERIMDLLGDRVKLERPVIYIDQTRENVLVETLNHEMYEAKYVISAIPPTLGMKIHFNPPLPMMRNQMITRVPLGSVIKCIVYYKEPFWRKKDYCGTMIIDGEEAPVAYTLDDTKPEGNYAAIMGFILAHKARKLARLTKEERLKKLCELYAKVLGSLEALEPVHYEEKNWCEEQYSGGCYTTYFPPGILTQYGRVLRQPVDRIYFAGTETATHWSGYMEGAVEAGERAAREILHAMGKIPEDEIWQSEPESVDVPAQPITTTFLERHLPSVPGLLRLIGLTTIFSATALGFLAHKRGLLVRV
Nature of the test: UV/Vis, benzaldehyde formation at […] nm.

Test [2] addresses T2, MAO-A (Homo sapiens, UniProt P21397).
T2 construct: gene MAOA; FAD enzyme; PDB 2Z5X was only the docking model
T2 sequence (P21397 1-527): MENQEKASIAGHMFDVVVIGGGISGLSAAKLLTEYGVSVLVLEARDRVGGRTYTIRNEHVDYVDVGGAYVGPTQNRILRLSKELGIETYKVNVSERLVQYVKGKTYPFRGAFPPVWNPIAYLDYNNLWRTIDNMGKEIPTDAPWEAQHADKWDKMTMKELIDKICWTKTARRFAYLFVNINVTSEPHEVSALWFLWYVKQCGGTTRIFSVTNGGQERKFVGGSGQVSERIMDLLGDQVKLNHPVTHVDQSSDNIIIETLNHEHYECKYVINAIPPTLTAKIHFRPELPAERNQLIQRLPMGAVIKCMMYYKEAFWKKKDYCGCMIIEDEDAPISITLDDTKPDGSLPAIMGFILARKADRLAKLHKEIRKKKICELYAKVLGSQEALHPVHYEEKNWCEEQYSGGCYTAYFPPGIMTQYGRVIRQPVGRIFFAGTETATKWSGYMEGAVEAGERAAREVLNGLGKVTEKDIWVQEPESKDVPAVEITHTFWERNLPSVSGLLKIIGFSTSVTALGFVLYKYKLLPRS
The test is described as follows: steady-state UV/Vis, 4-hydroxyquinoline at […] nm. The conditions noted are these: 20 μM MAO-A as printed, 50 mM HEPES pH 7.5, 0.5% Triton X-100, 25 °C.

Test [3] addresses T2, MAO-A. The test is described as follows: UV/Vis, 4-hydroxyquinoline formation at […] nm.
In test [4] the target is T1, MAO-B. Nature of the test: UV/Vis, benzaldehyde formation at […] nm. The conditions noted are these: 1.5 mM benzylamine, 30 μM MAO-B [sic], 50 mM HEPES pH 7.5, 0.5% Triton X-100, 25 °C; IC50 relative to fitted Imax (Hill-type fit); unreliable.

The term IC50 denotes the concentration that inhibits the measured activity by half. A lower IC50 goes with inhibition by little substance. For orientation: Km means the concentration of substrate that gives half-maximal velocity.

Where two headings read alike, the source gives them in different places.

`FCCCCCn1ccc2ccccc21` [compound 6, 1‐(5‐fluoropentyl)‐1H‐Indole] returned an IC50 in test [1] of 650 ± 90 µM.

Turning to `FCCCCCn1ncc2ccccc21` [compound 7, 1‐(5‐fluoropentyl)‐1H‐Indazole], 620 ± 20 µM corresponded to half-maximal inhibition in test [1] (IC50).

For the molecule `NCCC(=O)c1ccccc1N` [compound 12, kynuramine], the Km in test [2] worked out at 140 ± 30 µM.

For the molecule `Cn1ccc2ccccc21` [compound 10, 1‐methyl‐1H‐Indole], the half-maximal inhibitory concentration (IC50) in test [1] came out at 500 ± 20 µM.

`COC(=O)C(NC(=O)c1cn(CCCCCF)c2ccccc12)C(C)(C)C` (stereo not shown) [compound 2, methyl‐2‐[[1‐(5‐fluoropentyl)indole‐3‐carbonyl]amino]‐3,3‐dimethyl‐butanoate] returned an IC50 in test [3] of 77.1 ± 1.09 µM. For the same molecule, the “MAO-B / IC50” value in test [4] was 690 ± 420 µM.

“N‐[[1‐(5‐fluoropentyl)‐1H‐indazol‐3‐yl]carbonyl]‐3‐methyl‐D‐valine methyl ester [compound 1]”: the IC50 in test [3] (1 mM kynuramine, 20 μM MAO-A as printed, 50 mM HEPES pH 7.5, 0.5% Triton X-100, 25 °C, IC50 relative to fitted Imax (Hill-type fit)) was 87.8 ± 4.38 µM; in test [1] (1.5 mM benzylamine, 30 μM MAO-B [sic], 50 mM HEPES pH 7.5, 0.5% Triton X-100, 25 °C, IC50 relative to fitted Imax (Hill-type fit)), 420 ± 190 µM.

With `CCCCCn1ncc2ccccc21` [compound 9, 1‐pentyl‐1H‐Indazole], the IC50 in test [1] was 540 ± 30 µM.

In the case of `CCCCCn1ccc2ccccc21` [compound 8, 1‐pentyl‐1H‐Indole], in test [1], the IC50 is 630 ± 30 µM.
